Marks after values point to notes of the source that are not given here.

Holding throughout (type): in vivo
For experiment [1], the system named is cerebral hemorrhage model in wild-type AB strain zebrafish. In words: Simvastatin-induced cerebral hemorrhage model in zebrafish (incidence). Particulars: icariin 30 μM; for Incidence of cerebral hemorrhage: model control 83%. As for the experimental part:
1 dpf wild-type AB strain zebrafish was administered with an aqueous simvastatin solution (0.5 μM) for 18 hours to establish a cerebral hemorrhage model in zebrafish. 180 wild-type AB strain zebrafishes at 1 day post fertilization (1 dpf) were randomly selected and put in a six-well plate, 30 per well (experiment group). Simvastatin was used to induce a cerebral hemorrhage model in zebrafish. Aqueous MS-SOD solutions with concentrations of 222, 667 and 2000 μg/mL were administrated respectively, the concentration of positive control drug icariin was 30 μM, and the normal control group and the model control group were set at the same time. The volume of each well was 3 mL. After 18 hours of co-treatment with MS-SOD and simvastatin, 30 zebrafishes from each group were selected and observed under a microscope, photos were taken and saved. The number of zebrafish with cerebral hemorrhage was counted, and the incidence of cerebral hemorrhage in zebrafish of each experiment group was calculated.

Experiment [2] shares this test system. Description: Movement velocity in simvastatin-induced cerebral hemorrhage model in zebrafish. Particulars: icariin 30 μM (Table 3 prints 25 μg/mL); for Movement velocity (mean ± SE): n = 10, model control 80, normal control 198 mm/s. As for the experimental part:
5 dpf wild-type AB strain zebrafish was administered with an aqueous simvastatin solution (0.5 μM) for 18 hours to establish a cerebral hemorrhage model in zebrafish. 180 wild-type AB strain zebrafishes at 5 days post fertilization (5 dpf) were randomly selected and put in a six-well plate, 30 per well (experiment group). Aqueous MS-SOD solutions with concentrations of 222, 667 and 2000 μg/mL were administrated respectively, the concentration of positive control drug icariin was 30 μM, and the normal control group and the model control group were set at the same time. The volume of each well was 3 mL. After treatment of zebrafishes with samples for 4 hours, except for the normal control group, the other experiment groups were treated with simvastatin for 18 hours to establish the cerebral hemorrhage model. After the treatment, 10 zebrafishes from each group were randomly selected to measure the movement velocity (V) of zebrafish using a behavioral analyzer. The statistical significance of the movement velocity was used to evaluate the behavioral improvement effect of MS-SOD on cerebral hemorrhage. The formula of the behavioral improvement effect of MS-SOD on cerebral hemorrhage was as follows: [formula] Statistical analysis was performed using variance analysis and Dunnett's T-test, and p<0.05 indicated a significant difference.

Experiment [3] shares this test system. Description: Blood flow volume in simvastatin-induced cerebral hemorrhage model in zebrafish. Particulars: icariin 30 μM; for Blood flow volume (mean ± SE): n = 10, model control 0.13, normal control 0.30 nL/s. The method, then: 3 dpf wild-type AB strain zebrafish was administered with an aqueous simvastatin solution (0.5 μM) for 18 hours to establish a cerebral hemorrhage model in zebrafish. 180 wild-type AB strain zebrafishes at 3 days post fertilization (3 dpf) were randomly selected and put in a six-well plate, 30 per well (experiment group). Aqueous MS-SOD solutions with concentrations of 222, 667 and 2000 μg/mL were administrated respectively, the concentration of positive control drug icariin was 30 μM, and the normal control group (the zebrafishes were treated with water for fish) and the model control group were set at the same time. The volume of each well was 3 mL. After treatment of zebrafishes with samples for 4 hours, except for the normal control group, the other experiment groups were treated with simvastatin for 18 hours to establish the cerebral hemorrhage model. After the treatment, 10 zebrafishes from each group were randomly selected and placed in a heart rate and blood flow analysis system to record blood flow video of zebrafish, and analyze the blood flow volume (O) of zebrafish. The statistical significance of the blood flow volume was used to evaluate the improvement effect of MS-SOD on blood flow volume of cerebral hemorrhage. The formula of the improvement effect of MS-SOD on blood flow volume of cerebral hemorrhage was as follows: [formula] Statistical analysis was performed using variance analysis and Dunnett's T-test, and p<0.05 indicated a significant difference. 4.

Experiment [4] relates to cerebral ischemia model in Albino strain zebrafish. In words: Ponatinib-induced cerebral ischemia model in zebrafish. Particulars: aspirin 50 μg/mL; for Incidence of cerebral ischemia: model control 100%. As for the experimental part: Melanin allele mutated Albino strain zebrafish at 2 days post fertilization (2 dpf) was administered with an aqueous ponatinib solution (1 μg/mL) for 18 hours to establish a cerebral ischemia model in zebrafish. 180 melanin allele mutated Albino strain zebrafishes at 2 days post fertilization (2 dpf) were randomly selected. 30 zebrafishes were treated in each well (experiment group), and aqueous MS-SOD solutions with concentrations of 222, 667 and 2000 μg/mL were administrated respectively, the concentration of positive control drug aspirin was 50 μg/m L, and the normal control group and the model control group were set at the same time. The volume of each well was 3 mL. After MS-SOD treatment for a period of time, except for the normal control group, all the other experiment groups were simultaneously administrated with aqueous ponatinib solution to induce the cerebral ischemia model in zebrafish. After 18 hours of co-treatment with MS-SOD and ponatinib, 20 fish were randomly selected from each well and stained with o-Dianisidine. After staining, photos were taken and data were collected to count the number of zebrafish with cerebral ischemia and calculate the incidence of cerebral ischemia in zebrafish of each experiment group.

In the case of `COc1ccc(-c2oc3c(CC=C(C)C)c(O[C@@H]4O[C@H](CO)[C@@H](O)[C@H](O)[C@H]4O)cc(O)c3c(=O)c2O[C@@H]2O[C@@H](C)[C@H](O)[C@@H](O)[C@H]2O)cc1` [Icariin, icariin, reference compound], the “Improvement effect on cerebral hemorrhage” value in experiment [1] is 32* %; in experiment [1] (listed as icariin), 32%. Moreover, in experiment [1] (n = 30), the “Number of zebrafish with cerebral hemorrhage” value is recorded as 17. The “Incidence of cerebral hemorrhage” value is recorded as 56* % in experiment [1] (n = 30) and 57% in experiment [1] (n = 30, listed as icariin). The results for the Movement improvement effect in experiment [2] and in experiment [2] (listed as icariin) were 22* % and 22%, respectively. Besides, the “Movement velocity (mean ± SE)” value in experiment [2] is given as 106 ± 7 mm/s; in experiment [2] (listed as icariin), 106 mm/s. Besides, the “Blood flow volume improvement effect” value in experiment [3] came to 29%. Further, the “Blood flow volume (mean ± SE)” value in experiment [3] stood at 0.18 ± 0.025 nL/s; in experiment [3] (listed as icariin) it was 0.18 nL/s.
For `CC(=O)Oc1ccccc1C(=O)O` [Aspirin, aspirin, reference compound], the “Improvement effect on cerebral ischemia” value is recorded as 65*** % in experiment [4] and 65% in experiment [4] (listed as aspirin). Further, in experiment [4] (n = 20), the “Number of zebrafish with cerebral ischemia” value stood at 7. Besides, the “Incidence of cerebral ischemia” value in experiment [4] (n = 20) was 35*** %; in experiment [4] (n = 20, listed as aspirin), 35%.

The values are drawn from patent US20220168400A1, “USE OF A MANGANESE SUPEROXIDE DISMUTASE WITH HIGH STABILITY IN THE PREVENTION OR TREATMENT OF CEREBRAL STROKE” (CARRY HEALTH BIOPHARMACEUTICALS (HANGZHOU) CO., LTD., priority 2019, published 2022).
